According to US9255100B2 (BAYER INTELLECTUAL PROPERTY GMBH, priority 2010, dated 2016):

Biological target: T1, N-terminally GST-tagged human full length recombinant Mps-1 kinase (Homo sapiens, UniProt P33981)
T1 construct: N-terminally GST-tagged human full length recombinant Mps-1 kinase; purchased Invitrogen, Karslruhe, Germany PV4071
T1 sequence (P33981 1-857): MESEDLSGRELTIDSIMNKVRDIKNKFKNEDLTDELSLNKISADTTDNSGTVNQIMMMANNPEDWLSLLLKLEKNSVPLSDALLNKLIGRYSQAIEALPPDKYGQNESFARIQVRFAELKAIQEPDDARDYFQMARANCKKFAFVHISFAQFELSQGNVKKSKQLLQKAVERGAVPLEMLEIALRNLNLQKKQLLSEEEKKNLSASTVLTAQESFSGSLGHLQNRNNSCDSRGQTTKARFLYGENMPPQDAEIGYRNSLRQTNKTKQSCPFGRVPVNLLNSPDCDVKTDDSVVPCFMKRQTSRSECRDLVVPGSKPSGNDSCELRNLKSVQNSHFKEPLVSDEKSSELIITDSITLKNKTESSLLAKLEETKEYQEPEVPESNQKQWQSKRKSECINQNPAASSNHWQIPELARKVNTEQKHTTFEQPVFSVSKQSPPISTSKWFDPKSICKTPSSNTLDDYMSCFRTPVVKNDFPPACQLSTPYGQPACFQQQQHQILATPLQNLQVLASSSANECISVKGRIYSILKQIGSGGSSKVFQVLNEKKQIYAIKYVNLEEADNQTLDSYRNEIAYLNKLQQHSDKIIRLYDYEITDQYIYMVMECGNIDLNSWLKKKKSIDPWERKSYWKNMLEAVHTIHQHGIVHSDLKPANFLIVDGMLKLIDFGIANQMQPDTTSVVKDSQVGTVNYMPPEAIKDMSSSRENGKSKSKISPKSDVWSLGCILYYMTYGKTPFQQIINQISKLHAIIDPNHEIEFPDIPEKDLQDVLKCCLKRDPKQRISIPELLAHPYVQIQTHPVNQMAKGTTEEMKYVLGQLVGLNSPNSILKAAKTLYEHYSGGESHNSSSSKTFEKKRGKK
Test: Mps-1 kinase assay (TR-FRET)
Type: biochemical
Details: Mps1 IC50 [nM], 10 μM ATP, 1 μM peptide substrate, 60 min at 22° C.
Procedure, shortened: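 GST-tagged full-length recombinant Mps-1 at about 1 nM final, adjusted per lot for linear range, phosphorylated a biotinylated peptide. Product bound Eu-anti-phospho(Ser/Thr) antibody over 1 h at 22° C and was read by TR-FRET to streptavidin-XLent. Compounds scored for kinase inhibition.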

Row | Structure (SMILES) | IC50 [nM]
1 | CC(C)CNc1cc(-c2ccc(C(=O)N(C)C)cc2)nn2c(-c3ccc(C(=O)NC4CC4)cc3)cnc12 [Example 109, 4-{3-[4-(Cyclopropylcarbamoyl)phenyl]-8-[(2-methylpropyl)amino]imidazo[1,2-b]pyridazin-6-yl}-N,N-dimethylbenzamide] | 2.1
2 | Cc1ccccc1-c1cc(NCC(C)C)c2ncc(-c3ccc(C(=O)NC4CC4)cc3)n2n1 [Example 110] | 1.3
3 | CC(C)CNc1cc(-c2ccnc3ccccc23)nn2c(-c3ccc(C(=O)NC4CC4)cc3)cnc12 [Example 112, N-cyclopropyl-4-{8-[(2-methylpropyl)amino]-6-(quinolin-4-yl)imidazol [1,2-b]pyridazin-3-yl} benzamide] | 5.1
4 | CC(C)CNc1cc(-c2ccc(C(N)=O)cc2)nn2c(-c3ccc(C(=O)NC4CC4)cc3)cnc12 [Example 113, 4-{6-(4-Carbamoylphenyl)-8-[(2-methylpropyl)amino]imidazo[1,2-b]pyridazin-3-yl}-N-cyclopropylbenzamide] | 2
5 | CC(C)CNc1cc(-c2cccc(C(N)=O)c2)nn2c(-c3ccc(C(=O)NC4CC4)cc3)cnc12 [Example 114, 4-{6-(3-Carbamoylphenyl)-8-[(2-methylpropyl)amino]imidazo[1,2-b]pyridazin-3-yl}-N-cyclopropylbenzamide] | < 1
6 | CC(C)CNc1cc(-c2cncc3ccccc23)nn2c(-c3ccc(C(=O)NC4CC4)cc3)cnc12 [Example 115, N-cyclopropyl-4-{6-(isoquinolin-4-yl)-8-[(2-methylpropyl)amino]imidazo[1,2-b]pyridazin-3-yl}benzamide] | 27.5
7 | CC(C)CNc1cc(-c2ccc(C(=O)NC3CC3)cc2)nn2c(-c3ccc(C(=O)NC4CC4)cc3)cnc12 [Example 116, 4,4′-{8-[(2-Methylpropyl)amino]imidazo[1,2-b]pyridazine-3,6-diyl} bis(N-cyclopropylbenzamide)] | 4
8 | CC(C)CNc1cc(-c2cnn(C)c2)nn2c(-c3ccc(C(=O)NC4CC4)cc3)cnc12 [Example 117, N-cyclopropyl-4-{8-[(2-methylpropyl)amino]-6-(1-methyl-1H-pyrazol-4-yl)imidazo[1,2-b]pyridazin-3-yl}benzamide] | 3.3
9 | CC(C)CNc1cc(-c2cccc3cnccc23)nn2c(-c3ccc(C(=O)NC4CC4)cc3)cnc12 [Example 118, N-cyclopropyl-4-{6-(isoquinolin-5-yl)-8-[(2-methylpropyl)amino]imidazo[1,2-b]pyridazin-3-yl}benzamide] | 4.3
10 | CNC(=O)c1cccc(-c2cc(NCC(C)C)c3ncc(-c4ccc(C(=O)NC5CC5)cc4)n3n2)c1 [Example 119, 3-{3-[4-(Cyclopropylcarbamoyl)phenyl]-8-[(2-methylpropyl)amino]imidazo[1,2-b]pyridazin-6-yl}-N-methylbenzamide] | < 1
11 | CC(C)CNc1cc(-c2ccc(C(=O)NC(C)C)cc2)nn2c(-c3ccc(C(=O)NC4CC4)cc3)cnc12 [Example 120, 4-{3-[4-(Cyclopropylcarbamoyl)phenyl]-8-[(2-methylpropyl)amino]imidazo[1,2-b]pyridazin-6-yl}-N-(propan-2-yl)benzamide] | 2.5
12 | CC(C)CNc1cc(-c2cccs2)nn2c(-c3ccc(C(=O)NC4CC4)cc3)cnc12 [Example 121, N-cyclopropyl-4-{8-[(2-methylpropyl)amino]-6-(thiophen-2-yl)imidazo [1,2-b]pyridazin-3-yl} benzamide] | 1.8
13 | CC(C)CNc1cc(-c2ccsc2)nn2c(-c3ccc(C(=O)NC4CC4)cc3)cnc12 [Example 122, N-cyclopropyl-4-{8-[(2-methylpropyl)amino]-6-(thiophen-3-yl)imidazo [1,2-b]pyridazin-3-yl} benzamide] | 2.9
14 | CC(C)CNc1cc(-c2ccc(C(F)(F)F)cc2)nn2c(-c3ccc(C(=O)NC4CC4)cc3)cnc12 [Example 123, N-cyclopropyl-4-{8-[(2-methylpropyl)amino]-6-[4-(trifluoromethyl)phenyl]imidazo[1,2-b]pyridazin-3-yl}benzamide] | 7.6
15 | CC(C)CNc1cc(-c2cccc(Cl)c2)nn2c(-c3ccc(C(=O)NC4CC4)cc3)cnc12 [Example 124, 4-{6-(3-Chlorophenyl)-8-[(2-methylpropyl)amino]imidazo[1,2-b]pyridazin-3-yl}-N-cyclopropylbenzamide] | 4.7
16 | COc1cccc(-c2cc(NCC(C)C)c3ncc(-c4ccc(C(=O)NC5CC5)cc4)n3n2)c1 [Example 125, N-cyclopropyl-4-{6-(3-methoxyphenyl)-8-[(2-methylpropyl)amino]imidazo[1,2-b]pyridazin-3-yl}benzamide] | 3.8
17 | CC(=O)Nc1cccc(-c2cc(NCC(C)C)c3ncc(-c4ccc(C(=O)NC5CC5)cc4)n3n2)c1 [Example 126, 4-{6-[3-(Acetylamino)phenyl]-8-[(2-methylpropyl)amino]imidazo[1,2-b]pyridazin-3-yl}-N-cyclopropylbenzamide] | 2
18 | CC(C)CNc1cc(-c2cc3ccccc3o2)nn2c(-c3ccc(C(=O)NC4CC4)cc3)cnc12 [Example 127, 4-{6-(1-Benzofuran-2-yl)-8-[(2-methylpropyl)amino]imidazo[1,2-b]pyridazin-3-yl}-N-cyclopropylbenzamide] | 40
19 | CC(C)CNc1cc(-c2cccc(F)c2)nn2c(-c3ccc(C(=O)NC4CC4)cc3)cnc12 [Example 128, N-cyclopropyl-4-{6-(3-fluorophenyl)-8-[(2-methylpropyl)amino]imidazo[1,2-b]pyridazin-3-yl}benzamide] | 2.7
20 | COc1ccccc1-c1cc(NCC(C)C)c2ncc(-c3ccc(C(=O)NC4CC4)cc3)n2n1 [Example 129, N-cyclopropyl-4-{6-(2-methoxyphenyl)-8-[(2-methylpropyl)amino]imidazo[1,2-b]pyridazin-3-yl}benamide] | 3.3
21 | CC(C)CNc1cc(-c2ccc(-c3ccccc3)cc2)nn2c(-c3ccc(C(=O)NC4CC4)cc3)cnc12 [Example 130, 4-{6-(Biphenyl-4-yl)-8-[(2-methylpropyl)amino]imidazo[1,2-b]pyridazin-3-yl}-N-cyclopropylbenzamide] | 5.9
22 | CC(C)CNc1cc(-c2cccc(Cl)c2Cl)nn2c(-c3ccc(C(=O)NC4CC4)cc3)cnc12 [Example 131, N-cyclopropyl-4-{6-(2,3-dichlorophenyl)-8-[(2-methylpropyl)amino]imidazo[1,2-b]pyridazin-3-yl}benzamide] | 10
23 | CC(C)CNc1cc(-c2ccccc2F)nn2c(-c3ccc(C(=O)NC4CC4)cc3)cnc12 [Example 132, N-cyclopropyl-4-{6-(2-fluorophenyl)-8-[(2-methylpropyl)amino]imidazo[1,2-b]pyridazin-3-yl}benzamide] | 1.5
24 | CC(C)CNc1cc(-c2ccc(CO)cc2)nn2c(-c3ccc(C(=O)NC4CC4)cc3)cnc12 [Example 133, N-cyclopropyl-4-{6-[4-(hydroxymethyl)phenyl]-8-[(2-methylpropyl)amino]imidazo[1,2-b]pyridazin-3-yl}benzamide] | < 1
25 | CC(C)CNc1cc(-c2cccc(C(=O)NC(C)C)c2)nn2c(-c3ccc(C(=O)NC4CC4)cc3)cnc12 [Example 134, 3-{3-[4-(Cyclopropylcarbamoyl)phenyl]-8-[(2-methylpropyl)amino]imidazo[1,2-b]pyridazin-6-yl}-N-(propan-2-yl) benzamide] | < 1
26 | CC(C)CNc1cc(-c2cccc(C(=O)NC3CC3)c2)nn2c(-c3ccc(C(=O)NC4CC4)cc3)cnc12 [Example 135, N-cyclopropyl-3-{3-[4-(cyclopropylcarbamoyl)phenyl]-8-[(2-methylpropyl)amino]imidazo[1,2-b]pyridazin-6-yl}benzamide] | < 1
27 | CC(C)CNc1cc(-c2ccc3c(c2)OCO3)nn2c(-c3ccc(C(=O)NC4CC4)cc3)cnc12 [Example 136, 4-{6-(1,3-Benzodioxol-5-yl)-8-[(2-methylpropyl)amino]imidazo[1,2-b]pyridazin-3-yl}-N-cyclopropylbenzamide] | 4
28 | CC(C)CNc1cc(-c2ccnn2C)nn2c(-c3ccc(C(=O)NC4CC4)cc3)cnc12 [Example 137, N-cyclopropyl-4-{8-[(2-methylpropyl)amino]-6-(1-methyl-1H-pyrazol-5-yl)imidazo[1,2-b]pyridazin-3-yl}benzamide] | < 1
29 | CC(C)CNc1cc(-c2cccnc2)nn2c(-c3ccc(C(=O)NC4CC4)cc3)cnc12 [Example 138, N-cyclopropyl-4-{8-[(2-methylpropyl)amino]-6-(pyridin-3-yl)imidazo [1,2-b]pyridazin-3-yl} benzamide] | 2
